Data reported in the kinase profiling compilation of Christmann-Franck et al. (2016).

Columns and labels:
Assay in all cases: KINOMEscan competition binding
Settings in all cases: compound 10.0 µM
[1] = target: RPS6KA5 KD2 (human) (UniProt O75582)
[2] = target: MAPKAPK2 (human) (UniProt P49137)
[3] = target: PRKCE (human) (UniProt Q02156)
[4] = target: DCLK2 (human) (UniProt Q8N568)
[5] = target: RIPK4 (human) (UniProt P57078)
[6] = target: LATS2 (human) (UniProt Q9NRM7)
[7] = target: PIM3 (human) (UniProt Q86V86)
[8] = target: STK10 (human) (UniProt O94804)
STK10 (human), sequence (O94804 whole entry, looked up): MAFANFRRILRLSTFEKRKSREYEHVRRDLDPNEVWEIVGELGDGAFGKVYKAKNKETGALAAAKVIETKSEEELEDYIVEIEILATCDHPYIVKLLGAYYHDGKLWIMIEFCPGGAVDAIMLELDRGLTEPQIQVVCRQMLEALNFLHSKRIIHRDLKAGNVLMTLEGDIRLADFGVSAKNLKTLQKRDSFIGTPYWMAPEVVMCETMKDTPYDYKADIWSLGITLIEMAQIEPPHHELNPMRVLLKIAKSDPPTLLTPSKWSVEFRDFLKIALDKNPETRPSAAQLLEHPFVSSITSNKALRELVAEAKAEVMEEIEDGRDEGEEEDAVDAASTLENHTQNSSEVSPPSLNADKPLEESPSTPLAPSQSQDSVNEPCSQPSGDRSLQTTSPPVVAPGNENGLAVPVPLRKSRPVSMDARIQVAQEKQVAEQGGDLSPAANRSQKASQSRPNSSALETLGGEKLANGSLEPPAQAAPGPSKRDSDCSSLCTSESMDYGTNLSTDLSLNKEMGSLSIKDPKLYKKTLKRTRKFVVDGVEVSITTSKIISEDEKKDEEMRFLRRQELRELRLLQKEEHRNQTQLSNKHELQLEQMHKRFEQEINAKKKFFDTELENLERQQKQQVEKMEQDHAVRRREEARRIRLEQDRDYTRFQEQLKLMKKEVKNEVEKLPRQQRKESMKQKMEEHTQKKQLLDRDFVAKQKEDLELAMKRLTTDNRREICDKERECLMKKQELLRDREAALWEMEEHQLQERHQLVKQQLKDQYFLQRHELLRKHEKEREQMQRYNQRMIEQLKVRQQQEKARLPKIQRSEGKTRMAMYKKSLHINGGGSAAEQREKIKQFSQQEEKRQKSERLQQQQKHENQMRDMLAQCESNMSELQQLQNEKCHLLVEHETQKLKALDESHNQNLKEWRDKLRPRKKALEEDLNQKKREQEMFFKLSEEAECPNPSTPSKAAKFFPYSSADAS

[9] = target: AKT1 (human) (UniProt P31749)
[10] = target: PRKG2 (human) (UniProt Q13237)
[11] = target: ACVRL1 (human) (UniProt P37023)
[12] = target: CAMK1D (human) (UniProt Q8IU85)
[13] = target: MAP4K2 (human) (UniProt Q12851)
[14] = target: CAMK4 (human) (UniProt Q16566)
[15] = tested on: KIT (human), P10721 [D816V]
[16] = target: MYLK4 (human) (UniProt Q86YV6)
[17] = target: RET (human) (UniProt P07949)
[18] = target: MAPKAPK5 (human) (UniProt Q8IW41)
[19] = target: FLT1 (human) (UniProt P17948)
[20] = target: ANKK1 (human) (UniProt Q8NFD2)
[21] = target: NUAK1 (human) (UniProt O60285)
[22] = target: RPS6KA6 KD2 (human) (UniProt Q9UK32)
RPS6KA6 KD2 (human), sequence (Q9UK32 whole entry, looked up): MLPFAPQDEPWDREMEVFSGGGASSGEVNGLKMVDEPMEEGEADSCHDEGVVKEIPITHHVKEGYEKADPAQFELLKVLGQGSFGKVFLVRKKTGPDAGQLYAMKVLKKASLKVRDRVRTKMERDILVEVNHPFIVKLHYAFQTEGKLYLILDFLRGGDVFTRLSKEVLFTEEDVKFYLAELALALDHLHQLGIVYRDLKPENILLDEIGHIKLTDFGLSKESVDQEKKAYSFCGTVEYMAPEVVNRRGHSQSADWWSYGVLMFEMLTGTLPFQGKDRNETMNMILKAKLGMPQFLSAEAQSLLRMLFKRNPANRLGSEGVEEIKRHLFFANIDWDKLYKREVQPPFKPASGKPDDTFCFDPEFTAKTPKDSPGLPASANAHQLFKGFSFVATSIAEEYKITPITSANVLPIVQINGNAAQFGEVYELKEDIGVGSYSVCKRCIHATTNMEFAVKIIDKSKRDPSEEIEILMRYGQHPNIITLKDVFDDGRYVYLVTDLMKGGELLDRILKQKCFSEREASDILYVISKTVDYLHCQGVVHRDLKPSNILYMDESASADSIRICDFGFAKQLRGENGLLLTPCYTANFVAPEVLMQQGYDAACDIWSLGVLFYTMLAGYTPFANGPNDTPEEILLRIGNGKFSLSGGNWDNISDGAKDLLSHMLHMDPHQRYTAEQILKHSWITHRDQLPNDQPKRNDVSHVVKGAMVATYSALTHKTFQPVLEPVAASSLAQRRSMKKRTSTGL

[23] = target: PHKG1 (human) (UniProt Q16816)
[24] = target: LYN (human) (UniProt P07948)
[25] = target: NTRK2 (human) (UniProt Q16620)
[26] = target: CAMKK1 (human) (UniProt Q8N5S9)
[27] = target: PRKG1 (human) (UniProt Q13976)
[28] = target: MAP3K12 (human) (UniProt Q12852)
MAP3K12 (human), sequence (Q12852 whole entry, looked up): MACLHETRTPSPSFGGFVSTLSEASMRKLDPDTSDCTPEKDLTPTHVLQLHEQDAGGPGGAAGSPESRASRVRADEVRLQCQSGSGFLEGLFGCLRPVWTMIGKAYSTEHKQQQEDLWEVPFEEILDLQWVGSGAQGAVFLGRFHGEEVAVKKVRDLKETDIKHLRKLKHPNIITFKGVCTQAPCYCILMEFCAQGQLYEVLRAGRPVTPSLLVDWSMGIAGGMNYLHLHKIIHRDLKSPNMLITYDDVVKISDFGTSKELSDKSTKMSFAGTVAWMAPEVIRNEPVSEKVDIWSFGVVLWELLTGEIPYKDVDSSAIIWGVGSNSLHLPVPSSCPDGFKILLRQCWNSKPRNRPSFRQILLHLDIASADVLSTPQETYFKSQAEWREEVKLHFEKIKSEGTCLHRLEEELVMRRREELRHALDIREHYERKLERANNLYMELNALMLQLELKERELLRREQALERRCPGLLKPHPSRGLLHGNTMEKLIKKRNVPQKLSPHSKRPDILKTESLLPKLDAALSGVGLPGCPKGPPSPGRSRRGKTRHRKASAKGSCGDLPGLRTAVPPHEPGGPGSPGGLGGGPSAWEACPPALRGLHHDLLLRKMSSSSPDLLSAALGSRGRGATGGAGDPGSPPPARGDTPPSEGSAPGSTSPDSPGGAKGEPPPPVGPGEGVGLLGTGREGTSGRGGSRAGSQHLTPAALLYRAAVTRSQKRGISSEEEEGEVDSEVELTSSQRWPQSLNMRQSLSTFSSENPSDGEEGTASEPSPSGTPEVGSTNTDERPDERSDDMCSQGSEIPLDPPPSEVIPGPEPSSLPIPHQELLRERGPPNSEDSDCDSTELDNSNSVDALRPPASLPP

[29] = target: TEK (human) (UniProt Q02763)
[30] = target: DCLK3 (human) (UniProt Q9C098)
[31] = target: RPS6KA2 KD1 (human) (UniProt Q15349)
[32] = target: EPHB2 (human) (UniProt P29323)
[33] = target: WEE1 (human) (UniProt P30291)
[34] = target: ERBB4 (human) (UniProt Q15303)
[35] = target: ULK3 (human) (UniProt Q6PHR2)
[36] = target: CDK11B (human) (UniProt P21127)
[37] = target: EPHA6 (human) (UniProt Q9UF33)
[38] = target: NEK2 (human) (UniProt P51955)
[39] = target: MAPK15 (human) (UniProt Q8TD08)
[40] = target: DAPK1 (human) (UniProt P53355)

RPS6KA5 KD2 (human), sequence (O75582 whole entry, looked up): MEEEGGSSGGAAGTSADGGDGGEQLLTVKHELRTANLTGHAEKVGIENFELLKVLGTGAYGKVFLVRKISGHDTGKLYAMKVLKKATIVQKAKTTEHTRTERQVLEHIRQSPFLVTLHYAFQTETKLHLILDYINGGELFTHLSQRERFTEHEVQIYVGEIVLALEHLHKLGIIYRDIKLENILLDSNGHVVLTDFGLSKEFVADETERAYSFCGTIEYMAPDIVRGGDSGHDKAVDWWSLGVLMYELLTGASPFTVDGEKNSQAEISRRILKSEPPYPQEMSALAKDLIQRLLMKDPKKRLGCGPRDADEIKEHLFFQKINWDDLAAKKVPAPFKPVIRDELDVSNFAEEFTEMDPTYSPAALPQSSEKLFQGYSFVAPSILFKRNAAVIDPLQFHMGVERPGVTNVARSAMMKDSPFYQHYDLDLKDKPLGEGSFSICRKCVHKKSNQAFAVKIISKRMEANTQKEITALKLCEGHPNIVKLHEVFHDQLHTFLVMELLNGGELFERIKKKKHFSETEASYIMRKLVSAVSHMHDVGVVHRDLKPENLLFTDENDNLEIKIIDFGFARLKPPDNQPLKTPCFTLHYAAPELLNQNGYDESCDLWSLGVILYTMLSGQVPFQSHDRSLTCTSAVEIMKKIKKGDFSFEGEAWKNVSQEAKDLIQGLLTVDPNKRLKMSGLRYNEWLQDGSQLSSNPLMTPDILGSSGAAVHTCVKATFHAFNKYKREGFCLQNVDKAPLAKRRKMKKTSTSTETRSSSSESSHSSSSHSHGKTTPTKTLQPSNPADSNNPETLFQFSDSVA
MAPKAPK2 (human), sequence (P49137 whole entry, looked up): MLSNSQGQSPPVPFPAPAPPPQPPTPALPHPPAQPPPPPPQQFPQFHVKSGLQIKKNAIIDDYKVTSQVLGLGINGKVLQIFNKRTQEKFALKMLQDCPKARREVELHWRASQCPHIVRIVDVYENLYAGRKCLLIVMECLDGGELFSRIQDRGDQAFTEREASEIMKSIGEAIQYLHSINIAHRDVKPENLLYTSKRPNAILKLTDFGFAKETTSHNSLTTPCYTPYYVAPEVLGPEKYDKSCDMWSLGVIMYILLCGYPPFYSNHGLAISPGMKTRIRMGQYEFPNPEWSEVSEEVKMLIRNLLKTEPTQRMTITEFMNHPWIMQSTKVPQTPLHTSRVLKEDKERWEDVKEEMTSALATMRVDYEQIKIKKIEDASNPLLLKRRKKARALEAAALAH
LATS2 (human), sequence (Q9NRM7 whole entry, looked up): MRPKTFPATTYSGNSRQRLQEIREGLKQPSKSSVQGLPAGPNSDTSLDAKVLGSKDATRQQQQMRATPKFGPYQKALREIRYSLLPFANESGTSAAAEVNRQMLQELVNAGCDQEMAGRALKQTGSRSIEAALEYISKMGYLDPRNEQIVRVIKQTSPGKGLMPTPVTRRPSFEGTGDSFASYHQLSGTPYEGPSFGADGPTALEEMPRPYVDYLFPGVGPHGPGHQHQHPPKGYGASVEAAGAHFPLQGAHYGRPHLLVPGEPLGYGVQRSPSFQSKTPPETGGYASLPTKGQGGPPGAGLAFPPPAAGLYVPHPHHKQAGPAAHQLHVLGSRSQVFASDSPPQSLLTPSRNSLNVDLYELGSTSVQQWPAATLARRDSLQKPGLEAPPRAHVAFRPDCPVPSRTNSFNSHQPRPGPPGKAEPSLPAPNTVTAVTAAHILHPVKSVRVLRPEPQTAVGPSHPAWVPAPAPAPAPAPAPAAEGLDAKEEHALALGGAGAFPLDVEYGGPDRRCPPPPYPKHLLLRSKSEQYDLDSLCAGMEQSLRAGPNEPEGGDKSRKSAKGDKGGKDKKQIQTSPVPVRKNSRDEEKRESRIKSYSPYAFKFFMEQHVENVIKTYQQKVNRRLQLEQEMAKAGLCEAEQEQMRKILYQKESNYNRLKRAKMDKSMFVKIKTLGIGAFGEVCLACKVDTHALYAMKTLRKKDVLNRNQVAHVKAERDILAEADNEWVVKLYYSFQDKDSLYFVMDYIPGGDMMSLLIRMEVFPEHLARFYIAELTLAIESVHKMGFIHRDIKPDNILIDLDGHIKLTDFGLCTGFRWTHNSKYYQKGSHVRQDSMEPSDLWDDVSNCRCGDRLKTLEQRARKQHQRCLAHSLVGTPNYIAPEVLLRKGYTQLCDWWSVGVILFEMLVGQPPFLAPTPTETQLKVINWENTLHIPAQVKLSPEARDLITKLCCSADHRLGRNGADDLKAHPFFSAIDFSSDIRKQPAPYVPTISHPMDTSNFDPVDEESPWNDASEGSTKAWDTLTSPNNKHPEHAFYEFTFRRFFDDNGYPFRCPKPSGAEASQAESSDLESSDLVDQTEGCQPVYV

| SMILES | kinase still bound, per cent of control [1] [%] | kinase still bound, per cent of control [2] [%] | kinase still bound, per cent of control [3] [%] | kinase still bound, per cent of control [4] [%] | kinase still bound, per cent of control [5] [%] | kinase still bound, per cent of control [6] [%] | kinase still bound, per cent of control [7] [%] | kinase still bound, per cent of control [8] [%] | kinase still bound, per cent of control [9] [%] | kinase still bound, per cent of control [11] [%] | kinase still bound, per cent of control [12] [%] | kinase still bound, per cent of control [13] [%] | kinase still bound, per cent of control [14] [%] | kinase still bound, per cent of control [15] [%] | kinase still bound, per cent of control [16] [%] | kinase still bound, per cent of control [17] [%] | kinase still bound, per cent of control [18] [%] | kinase still bound, per cent of control [19] [%] | kinase still bound, per cent of control [20] [%] | kinase still bound, per cent of control [21] [%] | further results |
| --- | --- | --- | --- | --- | --- | --- | --- | --- | --- | --- | --- | --- | --- | --- | --- | --- | --- | --- | --- | --- | --- |
| C[C@@H](Oc1cc(-n2cnc3ccc(CN4CCN(C)CC4)cc32)sc1C(N)=O)c1ccccc1C(F)(F)F | 34 | 100 | 3.9 | 100 | 52 | 42 | 11 | 0 | 100 | 100 | 82 | 24 | 100 | 16 | 78 | 100 | 89 | 100 | 26 | 17 | kinase still bound, per cent of control [10]: 95%; kinase still bound, per cent of control [22]: 73%; kinase still bound, per cent of control [23]: 94%; kinase still bound, per cent of control [24]: 99%; kinase still bound, per cent of control [25]: 68%; kinase still bound, per cent of control [26]: 99%; kinase still bound, per cent of control [27]: 100%; kinase still bound, per cent of control [28]: 57%; kinase still bound, per cent of control [29]: 78%; kinase still bound, per cent of control [30]: 72%; kinase still bound, per cent of control [31]: 4%; kinase still bound, per cent of control [32]: 99%; kinase still bound, per cent of control [33]: 100%; kinase still bound, per cent of control [34]: 88%; kinase still bound, per cent of control [35]: 100%; kinase still bound, per cent of control [36]: 100%; kinase still bound, per cent of control [37]: 92%; kinase still bound, per cent of control [38]: 2.4%; kinase still bound, per cent of control [39]: 52% |
| Cc1cc([C@@H](C)Nc2ccccc2C(=O)O)c2nc(N3CCOCC3)cc(=O)n2c1 | 91 | 66 | 100 | 100 | 99 | 63 | 100 | 100 | 100 | 89 | 100 | 56 | 100 | 81 | 98 | 100 | 100 | 83 | 100 | 100 | kinase still bound, per cent of control [10]: 98%; kinase still bound, per cent of control [22]: 100%; kinase still bound, per cent of control [23]: 93%; kinase still bound, per cent of control [24]: 99%; kinase still bound, per cent of control [26]: 98%; kinase still bound, per cent of control [27]: 100%; kinase still bound, per cent of control [40]: 95%; kinase still bound, per cent of control [28]: 85%; kinase still bound, per cent of control [29]: 100%; kinase still bound, per cent of control [30]: 85%; kinase still bound, per cent of control [31]: 97%; kinase still bound, per cent of control [32]: 100%; kinase still bound, per cent of control [33]: 100%; kinase still bound, per cent of control [34]: 100%; kinase still bound, per cent of control [35]: 98%; kinase still bound, per cent of control [36]: 100%; kinase still bound, per cent of control [37]: 100%; kinase still bound, per cent of control [38]: 71%; kinase still bound, per cent of control [39]: 100% |
| CCCS(=O)(=O)Nc1ccc(F)c(C(=O)c2c[nH]c3ncc(-c4ccc(Cl)cc4)cc23)c1F | 100 | 100 | 87 | 100 | 91 | 75 | 100 | 16 | 100 | 65 | 100 | 59 | 100 | 52 | 0.45 | 43 | 100 | 43 | 91 | 100 | kinase still bound, per cent of control [22]: 75%; kinase still bound, per cent of control [23]: 100%; kinase still bound, per cent of control [24]: 16%; kinase still bound, per cent of control [25]: 78%; kinase still bound, per cent of control [26]: 86%; kinase still bound, per cent of control [27]: 100%; kinase still bound, per cent of control [40]: 83%; kinase still bound, per cent of control [28]: 62%; kinase still bound, per cent of control [29]: 62%; kinase still bound, per cent of control [30]: 47%; kinase still bound, per cent of control [31]: 39%; kinase still bound, per cent of control [32]: 99%; kinase still bound, per cent of control [33]: 100%; kinase still bound, per cent of control [35]: 46%; kinase still bound, per cent of control [36]: 100%; kinase still bound, per cent of control [37]: 100%; kinase still bound, per cent of control [38]: 71%; kinase still bound, per cent of control [39]: 89% |
